pIC50, pKd: −log10 of the molar value. “And” between values parts separate entries of the source, which are not always exact repeats. Equal entries are not always repeated. Where two headings read alike, the source gives them in different places. Marks after values point to notes of the source that are not given here. One block for each compound: values may come before it.
Assays:
human DYRK1A [1] = biological target: T1, human DYRK1A (Homo sapiens, UniProt Q13627); test: Human DYRK1A kinase functional assay (CEREP, LANCE detection); format: biochemical; design: CEREP (France), contract assay provider
Protocol: (II) Human DYRK1A Kinase Functional Assay and IC50 Measurements.
Compound profiling in a human DYRK1A kinase functional assay was performed by CEREP (France). The effects of compounds on the activity of human DYRK1A were evaluated and quantified by measuring the phosphorylation of the substrate Ulight-CFFKNIVTPRTPPPSQGK-amide (MBP) using a human recombinant enzyme and the LANCE® detection method, as described by Himpel et al, J. Biol. Chem., 275: 2431 (2000). The inhibitory activity of the compounds was expressed as a percent inhibition of the control kinase activity. Activities of the compounds at 50% or higher inhibition were selected for IC50 determination. Compounds were tested at 6 concentrations in duplicate for IC50 determination. The standard inhibitory reference compound was staurosporine, which was tested in each experiment at 8 concentrations to obtain an inhibition curve from which its IC50 value was calculated.
In certain embodiments, compounds have a low IC50 value in the DYRK1A kinase functional assay. […] The human DYRK1A kinase functional assay has been used to test the compounds of the Examples disclosed.

human DYRK1A [2] = biological target: T1, human DYRK1A; test: Human DYRK1A kinase competitive binding assay (Ambit Biosciences); design: Ambit Biosciences (San Diego, Calif., USA), contract assay provider
Protocol: (I) Human DYRK1A Kinase Binding Assay and Binding Constant Measurements. Human DYRK1A kinase profiles in a competitive binding assay were performed by Ambit Biosciences (San Diego, Calif., USA). Activity was recorded via a competition binding assay of human DYRK1A kinase that was fused to a proprietary tag. Measurements of the amount of DYRK1A kinase bound to an immobilized, active-site directed ligand in the presence and absence of the test compound provided a percentage of DMSO control for binding of ligand. Activities between 1% and 10% were selected for Kd determination. Dendrogram representations were generated by an in-house visualization tool designated as PhyloChem. In certain embodiments, compounds have a low Kd value in the DYRK1A kinase binding assay. […] The human DYRK1A kinase binding assay has been used to test the compounds of the Examples disclosed.

[3] = Brain/plasma pharmacokinetics, single i.v. bolus in rats; format: in vivo, Sprague-Dawley rats; conditions: 10 mg/kg bolus i.v., normal rats; for Kp / concentration at 0.25 h / concentration at 1 h / concentration at 4 h: intravenous; for Kp: read-out: BAUC/PAUC Ratio; for AUC(0-t): read-out: AUC0-t of Plasma
Protocol: (§1) (IV) Pharmacokinetic Studies
(§2) The pharmacokinetic studies in Sprague-Dawley rats were performed using the protocols developed by WuXi AppTec (St. Paul, Minn., USA, and Shanghai, China. http://www.apptecls.com/).
The brain exposure of the compound of Example 1 is about […] higher than that required for inhibition of DYRK1A, with a Kd and IC50 at about 1 uM, or 280 ng/mL.

[4] = Plasma pharmacokinetics, single dose in rats; format: in vivo, Sprague-Dawley rats; conditions: normal rats; for MRT inf: read-out: MRT0-inf; for MRT last: read-out: MRT0-last; for Vd: read-out: Vdss
Protocol: as §1, §2

[5] = Sprague-Dawley, rat, iv, i.v. 2 mg/kg, plasma
[6] = Sprague-Dawley, rat, iv, i.v. 10 mg/kg, plasma
[7] = Sprague-Dawley, rat, plasma, iv, i.v. 2 mg/kg
[8] = Sprague-Dawley, rat, plasma, iv, i.v. 10 mg/kg
[9] = Sprague-Dawley, rat, po, p.o. 10 mg/kg, plasma

SMILES: CCc1nc2c(c3c1[nH]c1ccccc13)C(=O)CC(C)(C)C2 [Example 10, 6-ethyl-3,3-dimethyl-2,3,4,7-tetrahydro-indolo[2,3-c]quinolin-1-one]
pIC50 (human DYRK1A [1]): > 5.30

SMILES: COc1ccc2[nH]c3c(C)nc4c(c3c2c1)C(=O)CC(C)(C)C4 [Example 6, 10-methoxy-3,3,6-trimethyl-2,3,4,7-tetrahydroindolo[2,3-c]quinolin-1-one]
pKd (human DYRK1A [2]): > 5.30

SMILES: Cc1nc2c(c3c1[nH]c1ccc(F)cc13)C(=O)CC(C)(C)C2 [Example 4, 10-fluoro-3,3,6-trimethyl-2,3,4,7-tetrahydroindolo[2,3-c]quinolin-1-one]
pKd (human DYRK1A [2]): > 6.00
pIC50 (human DYRK1A [1]): > 5.70

SMILES: Cc1nc2c(c3c1[nH]c1ccccc13)C(=O)CC(C)(C)C2 [Example 1, 3,3,6-trimethyl-2,3,4,7-tetrahydroindolo[2,3-c]quinolin-1-one]
AUC0-t of Brain ([3]; t = 0.25 h): 2409 ng·h/g
AUC0-t of Brain ([3]; t = 1 h): 4727 ng·h/g
AUC0-t of Brain ([3]; t = 4 h): 5924 ng·h/g
AUC0-t of Brain ([3]; t = 8 h, the data is the value of AUC(inf)): 6020^b ng · h/g
AUC0-t of Brain ([3]; t = 24 h, the data is the value of AUC(inf)): 6020^b ng · h/g
Kp ([3]; Sprague-Dawley, rat, brain and plasma, 10 mg/kg, t = 0.25 h, BrainAUC(0-t)/PlasmaAUC(0-t)): 3.04
Kp ([3]; Sprague-Dawley, rat, brain and plasma, 10 mg/kg, t = 1 h, BrainAUC(0-t)/PlasmaAUC(0-t)): 2.81
Kp at 0.25 h ([3]; Sprague-Dawley, rat, brain and plasma, iv, 10 mg/kg, time 0.25 h, read-out: Brain/Plasma Ratio): 2.89
Kp at 1 h ([3]; Sprague-Dawley, rat, brain and plasma, iv, 10 mg/kg, time 1 h, read-out: Brain/Plasma Ratio): 2.17
Kp ([3]; Sprague-Dawley, rat, brain, 10 mg/kg, t = 4 h, BrainAUC(0-t)/PlasmaAUC(0-t)): 2.6
Kp ([3]; Sprague-Dawley, rat, brain, 10 mg/kg, t = 8 h): 2.56
Kp ([3]; Sprague-Dawley, rat, brain, 10 mg/kg, t = 24 h): 2.56
concentration at 0.25 h ([3]; Sprague-Dawley, rat, brain, time 0.25 h, read-out: Mean concentration in brain): 6900 ng/mL
concentration at 1 h ([3]; Sprague-Dawley, rat, brain, time 1 h, read-out: Mean concentration in brain): 1030 ng/mL
concentration at 4 h ([3]; Sprague-Dawley, rat, brain, time 4 h, read-out: Mean concentration in brain): 99.4 ng/mL
Kp at 4 h ([3]; Sprague-Dawley, rat, brain, iv, 10 mg/kg, time 4 h, read-out: Brain/Plasma Ratio): 1.69
concentration at 0.25 h ([3]; Sprague-Dawley, rat, plasma, time 0.25 h, read-out: Mean concentration in plasma): 2390 ng/mL
concentration at 1 h ([3]; Sprague-Dawley, rat, plasma, time 1 h, read-out: Mean concentration in plasma): 476 ng/mL
concentration at 4 h ([3]; Sprague-Dawley, rat, plasma, time 4 h, read-out: Mean concentration in plasma): 58.7 ng/mL
AUC(0-t) ([3]; Sprague-Dawley, rat, plasma, iv, 10 mg/kg, t = 0.25 h): 792 ng·h/mL
AUC(0-t) ([3]; Sprague-Dawley, rat, plasma, iv, 10 mg/kg, t = 1 h): 1680 ng·h/mL
AUC(0-t) ([3]; Sprague-Dawley, rat, plasma, iv, 10 mg/kg, t = 4 h): 2280 ng·h/mL
AUC(0-t) ([3]; Sprague-Dawley, rat, plasma, iv, 10 mg/kg, t = 8 h, the data is the value of AUC(inf)): 2350 ng·h/mL
AUC(0-t) ([3]; Sprague-Dawley, rat, plasma, iv, 10 mg/kg, t = 24 h, the data is the value of AUC(inf)): 2350 ng·h/mL
melting point: 178.3 to 180.7 °C
pKd (human DYRK1A [2]): > 5.00 and > 6.00 and ~6.00
AUC(0-inf) [4, 5]: 316 ng·h/mL
AUC(0-t) [4, 5]: 312 ng·h/mL
half-life [4, 5]: 22.2 min
MRT inf [4, 5]: 21.9 min
MRT last [4, 5]: 19.9 min
AUC(0-inf) [4, 6]: 2350 ng·h/mL
AUC(0-t) [4, 6]: 2280 ng·h/mL
half-life [4, 6]: 45.9 min
MRT inf [4, 6]: 53.6 min
MRT last [4, 6]: 46.4 min
clearance [4, 7]: 106 mL/min/kg
Vd [4, 7]: 2.31 L/kg
clearance [4, 8]: 71.1 mL/min/kg
Vd [4, 8]: 3.81 L/kg
bioavailability ([4]; Sprague-Dawley, rat, plasma, po, p.o. 10 mg/kg, calculated using AUC0-inf, read-out: F (absolute oral bioavailability)): 34%
AUC(0-inf) [4, 9]: 544 ng·h/mL
AUC(0-t) [4, 9]: 541 ng·h/mL
Cmax [4, 9]: 1860 ng/mL
Tmax [4, 9]: 15 min
half-life [4, 9]: 49.3 min
MRT inf [4, 9]: 39.3 min
MRT last [4, 9]: 36.6 min
AUCExtra ([4]; i.v. 2 mg/kg, plasma): 1.49%
Co ([4]; i.v. 2 mg/kg, plasma): 1665 ng/mL
CL0-last ([4]; i.v. 10 mg/kg): 73.1 mL/min/kg
Vdss0-last ([4]; i.v. 10 mg/kg): 3.39 L/kg
Co ([4]; i.v. 10 mg/kg, plasma): 4100 ng/mL
AUCExtra ([4]; p.o. 10 mg/kg, plasma): 0.672%
pIC50 (human DYRK1A [1]): > 5.70 and ~6.00

SMILES: Cc1nc2c(c3c1[nH]c1ccccc13)C(=O)CC(C)C2 (centres unmarked) [Example 8, 3,6-dimethyl-2,3,4,7-tetrahydroindolo[2,3-c]quinolin-1-one]
pIC50 (human DYRK1A [1]): > 5.30

SMILES: Cc1nc2c(c3c1[nH]c1cccc(F)c13)C(=O)CC(C)(C)C2 [Example 2, 11-fluoro-3,3,6-trimethyl-2,3,4,7-tetrahydroindolo[2,3-c]quinolin-1-one]
pKd (human DYRK1A [2]): > 6.00
pIC50 (human DYRK1A [1]): > 5.30

Continued, values first:

pIC50 (human DYRK1A [1]): > 5.70
SMILES: CCc1nc2c(c3c1[nH]c1ccc(F)cc13)C(=O)CC(C)(C)C2 [Example 16, 10-fluoro-6-ethyl-3,3,-dimethyl-2,3,4,7-tetrahydroindolo[2,3-c]quinolin-1-one]

pIC50 (human DYRK1A [1]): > 5.00
SMILES: Cc1nc2c(c3c1[nH]c1ccccc13)C(=O)CC1(CCCCC1)C2 [Example 12, 6-methyl-3′H-spirocyclohexane-2,3,4,7-tetrahydroindolo[2,3-c]quinolin-1-one]

pIC50 (human DYRK1A [1]): > 5.30
SMILES: Cc1nc2c(c3c1[nH]c1ccc(Cl)cc13)C(=O)CC(C)(C)C2 [Example 13, 10-chloro-3,3,6-trimethyl-2,3,4,7-tetrahydroindolo[2,3-c]quinolin-1-one]

pIC50 (human DYRK1A [1]): > 5.00
SMILES: COc1ccc2[nH]c3cnc4c(c3c2c1)C(=O)CC(C)(C)C4 [Example 14, 10-methoxy-3,3-dimethyl-2,3,4,7-tetrahydroindolo[2,3-c]quinolin-1-one]

pIC50 (human DYRK1A [1]): > 5.30
SMILES: CC1(C)CC(=O)c2c(ncc3[nH]c4ccccc4c23)C1 [Example 11, 3,3-dimethyl-2,3,4,7-tetrahydroindolo[2,3-c]quinolin-1-one]

pIC50 (human DYRK1A [1]): > 5.30
SMILES: CCc1nc2c(c3c1[nH]c1cccc(F)c13)C(=O)CC(C)(C)C2 [Example 15, 11-fluoro-6-ethyl-3,3,-dimethyl-2,3,4,7-tetrahydroindolo[2,3-c]quinolin-1-one]

From patent US20110021776A1, “COMPOSITIONS FOR THE TREATMENT OF CENTRAL NERVOUS SYSTEM DISEASES AND DISORDERS” (MediProPharma, Inc., priority 2006, published 2011)
